Test results from ChEMBL document CHEMBL5360593, “Rare Caulamidine Hexacyclic Alkaloids from the Marine Ascidian Polyandrocarpa sp” (J Nat Prod, 2023).
Active and inactive are the calls of the source. No cut-off for these calls is given here.

Molecular target: E3 ubiquitin-protein ligase CBL-B (Homo sapiens) (UniProt Q13191)
Test: Inhibition of CBLB (unknown origin) using biotinylated ubiquitin as substrate at 20 uM incubated for 1 hr by microplate analysis

Chain of E3 ubiquitin-protein ligase CBL-B (Homo sapiens) (Q13191 whole entry): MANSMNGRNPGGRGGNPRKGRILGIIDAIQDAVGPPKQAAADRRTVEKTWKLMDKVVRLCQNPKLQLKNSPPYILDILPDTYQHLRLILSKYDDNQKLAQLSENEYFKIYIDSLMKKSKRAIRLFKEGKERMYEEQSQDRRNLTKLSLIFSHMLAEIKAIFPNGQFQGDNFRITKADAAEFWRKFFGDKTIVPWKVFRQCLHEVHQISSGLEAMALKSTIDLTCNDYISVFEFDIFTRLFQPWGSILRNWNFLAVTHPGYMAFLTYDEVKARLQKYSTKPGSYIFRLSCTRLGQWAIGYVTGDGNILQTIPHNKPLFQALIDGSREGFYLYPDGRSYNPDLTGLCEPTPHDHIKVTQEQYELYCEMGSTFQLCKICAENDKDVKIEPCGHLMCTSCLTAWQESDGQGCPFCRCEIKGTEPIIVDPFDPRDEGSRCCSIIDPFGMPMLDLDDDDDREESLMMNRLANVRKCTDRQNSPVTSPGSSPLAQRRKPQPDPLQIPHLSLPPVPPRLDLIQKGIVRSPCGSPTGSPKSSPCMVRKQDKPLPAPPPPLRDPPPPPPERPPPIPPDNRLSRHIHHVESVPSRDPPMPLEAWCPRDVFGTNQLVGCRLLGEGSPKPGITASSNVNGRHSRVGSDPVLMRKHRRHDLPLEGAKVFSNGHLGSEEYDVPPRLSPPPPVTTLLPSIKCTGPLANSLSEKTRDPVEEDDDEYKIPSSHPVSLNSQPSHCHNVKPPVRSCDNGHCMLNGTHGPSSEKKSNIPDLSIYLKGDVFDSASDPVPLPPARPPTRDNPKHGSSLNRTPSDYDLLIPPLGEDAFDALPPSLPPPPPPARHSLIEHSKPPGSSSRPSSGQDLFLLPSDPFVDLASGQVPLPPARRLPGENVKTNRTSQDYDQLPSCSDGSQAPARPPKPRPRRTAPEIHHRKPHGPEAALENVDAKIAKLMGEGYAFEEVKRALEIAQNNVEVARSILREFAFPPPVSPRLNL

inhibition, inactive:
CN1C[C@H](Cl)[C@]23Cc4ccc(Br)cc4N(C)C2=NC[C@@H](Cl)[C@]32C1=Nc1ccccc12
CN1C[C@@H](Cl)[C@@]23C(=Nc4cc(Br)ccc42)N(C)CC[C@@]32Cc3ccc(Br)cc3N=C12
CN1CC[C@]23Cc4ccc(Br)cc4N(C)C2=NC[C@@H](Cl)[C@]32C1=Nc1cc(Br)ccc12
CN1C[C@@H](Cl)[C@@]23C(=Nc4ccccc42)N(C)C[C@H](Cl)[C@@]32Cc3ccc(Br)cc3N=C12
CN1CC[C@]23Cc4ccc(Br)cc4N(C)C2=NC[C@@H](Cl)[C@]32C1=Nc1ccccc12
CN1C[C@@H](Cl)[C@@]23C(=Nc4ccccc42)N(C)CC[C@@]32Cc3ccc(Br)cc3N=C12
